Measured values reported in patent publication US6294519A, “Method for treating ischemia” (University of Kentucky Research Foundation, priority 2000, dated 2001).

Tested on: focal middle cerebral arterial occlusion (MCAO) ischemia
Settings: for neurological deficits (behavior ranking 0 to 3): 4 mg/kg i.p. at 6.5, 4.5, 2.5 and 0.5 h prior to ischemia, 24 h reperfusion, mean±SEM, n=8, 0=normal, 3=severe; for neurological deficits (behavior ranking 0 to 3) / infarct volume reduction compared to control animals: 1 h MCAO; for infarct volume reduction compared to control animals / differences in MABP, pO2, pCO2, pH or rectal temperature versus control animals: 4 mg/kg i.p. x4 prior to ischemia; for infarct volume reduction compared to control animals / statistical significance of the infarct volume difference versus control: after 24 h of reperfusion; for statistical significance of the infarct volume difference versus control: significance at p<0.05; for differences in MABP, pO2, pCO2, pH or rectal temperature versus control animals: post ischemia

CC(C)C[C@@H](NC(=O)[C@H](Cc1ccccc1)NC(=O)CNC(=O)[C@@H](C)NC(=O)[C@@H](N)Cc1ccc(O)cc1)C(=O)O [DADLE, Tyr-D-Ala-Gly-Phe-D-Leu-enkephalin]
neurological deficits (behavior ranking 0 to 3): 1.73±0.20 | infarct volume reduction compared to control animals: 12% | statistical significance of the infarct volume difference versus control: not statistically significant | differences in MABP, pO2, pCO2, pH or rectal temperature versus control animals: no significant differences

CC(C)[C@H](NC(=O)[C@H](CC(=O)O)NC(=O)[C@H](Cc1ccccc1)NC(=O)[C@@H](C)NC(=O)[C@@H](N)Cc1ccc(O)cc1)C(=O)N[C@H](C(=O)NCC(N)=O)C(C)C [deltorphin, Tyr-Ala-Phe-Asp-Val-Val-Gly-NH2]
neurological deficits (behavior ranking 0 to 3): 0.44±0.11 | infarct volume reduction compared to control animals: 42% | statistical significance of the infarct volume difference versus control: significantly reduced | differences in MABP, pO2, pCO2, pH or rectal temperature versus control animals: no significant differences
